Laboratory results published in patent US9399646B2 (Genentech, Inc., priority 2010, dated 2016).

Key:
[1] = system: MCF-7 cells; test: Breast cancer cell viability assay (CellTiter-Glo, 5 days); type: cell-based; details: 5 days' compound exposure; for IC50: Homo sapiens, MCF7, 120 h
Method in brief: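 Eleven-point semilog compound series, final 0.3-0.000003 μM, added to overnight-adhered MCF-7 cells (320/well; RPMI, 10% FBS, 20 mM HEPES) for 5 days. Viability read by CellTiter-Glo luminescence, background from medium without cells subtracted, expressed relative to untreated cells.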

[2] = molecular target: T1, ER-α in MCF-7 cells (Homo sapiens, UniProt P03372); test: Breast cancer cell ER-α in cell western assay (SP1); type: cell-based; design: endogenous in cells; host or cells: MCF-7; details: 4 or 24 hr post compound addition; for Emax: MCF7, SP1 antibody, read-out: ER-α In Cell Western Assay (SP1) Max Response; for DC50: SP1 antibody, read-out: ER-α In Cell Western Assay (SP1) IC50
T1 sequence (P03372 1-595): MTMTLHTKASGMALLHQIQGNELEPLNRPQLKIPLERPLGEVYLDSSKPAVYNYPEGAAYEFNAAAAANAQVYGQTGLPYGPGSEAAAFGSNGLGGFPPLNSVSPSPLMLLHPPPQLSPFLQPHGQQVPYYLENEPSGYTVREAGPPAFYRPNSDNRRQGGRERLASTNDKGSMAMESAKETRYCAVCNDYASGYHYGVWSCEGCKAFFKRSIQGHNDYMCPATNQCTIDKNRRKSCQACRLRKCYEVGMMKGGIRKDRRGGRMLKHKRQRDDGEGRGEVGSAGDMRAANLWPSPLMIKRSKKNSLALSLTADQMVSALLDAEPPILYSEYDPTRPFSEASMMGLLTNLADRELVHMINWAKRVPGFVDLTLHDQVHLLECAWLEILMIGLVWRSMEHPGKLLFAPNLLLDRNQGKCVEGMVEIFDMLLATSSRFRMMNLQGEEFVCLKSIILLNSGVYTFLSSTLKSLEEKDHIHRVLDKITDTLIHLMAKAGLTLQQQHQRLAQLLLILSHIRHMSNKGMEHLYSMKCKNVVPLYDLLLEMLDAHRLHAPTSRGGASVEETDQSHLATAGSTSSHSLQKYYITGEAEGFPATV
Method in brief: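 ER-α protein levels were measured in MCF-7 cells after 4 or 24 hr compound exposure (final 0.3–0.000003 μM) in RPMI containing 10% charcoal-stripped FBS.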

Row | IC50 [1] | Emax [2] | DC50 [2] | SMILES | MCF7 Viability Assay Max Response [1]
1 | ≤ 100 nM | ≥ 40% | ≤ 100 nM | CC/C(=C(/c1ccc(/C=C/C(=O)O)cc1)c1ccc2[nH]ncc2c1)c1ccsc1Cl [Compound 267, (E)-3-(4-((E)-2-(2-Chlorothiophen-3-yl)-1-(1H-indazol-5-yl)but-1-en-1-yl)phenyl)acrylic acid] | ++ (++ = a single % value ≧ 40%)
2 | ≤ 100 nM | ≥ 40% | ≤ 100 nM | CC/C(=C(/c1ccc(/C=C/C(=O)O)cc1)c1cc(F)c2[nH]ccc2c1)c1ccccc1 [Compound 92, (E)-3-(4-((E)-1-(7-Fluoro-1H-indol-5-yl)-2-phenylbut-1-en-1-yl)phenyl)acrylic acid] | ++ (++ = a single % value ≧ 40%)
3 | > 100 nM | ≥ 40% | ≤ 100 nM | CC/C(=C(/c1ccc(/C=C/C(=O)O)cc1)c1ccc2[nH]ncc2c1)c1cccc(Oc2cncnc2)c1 [Compound 369, (E)-3-(4-((E)-1-(1H-Indazol-5-yl)-2-(3-(pyrimidin-5-yloxy)phenyl)but-1-en-1-yl)phenyl)acrylic acid] | ++ (++ = a single % value ≧ 40%)
4 | ≤ 100 nM | ≥ 40% | ≤ 100 nM | CC/C(=C(/c1ccc(/C=C/C(=O)O)cc1)c1ccc2[nH]ncc2c1F)c1cscc1C [Compound 242, (E)-3-(4-((E)-1-(4-Fluoro-1H-indazol-5-yl)-2-(4-methylthiophen-3-yl)but-1-en-1-yl)phenyl)acrylic acid] | ++ (++ = a single % value ≧ 40%)
5 | ≤ 100 nM | ≥ 40% | ≤ 100 nM | Cc1cscc1/C(=C(\c1ccc(/C=C/C(=O)O)cc1)c1ccc2[nH]ncc2c1)C(C)C [Compound 154, (E)-3-(4-((E)-1-(1H-Indazol-5-yl)-3-methyl-2-(4-methylthiophen-3-yl)but-1-en-1-yl)phenyl)acrylic acid] | ++ (++ = a single % value ≧ 40%)
6 | > 100 nM | ≥ 40% | > 100 nM | CC/C(=C(/c1ccc(/C=C/C(=O)O)cc1)c1ccc2[nH]ncc2c1F)c1cccc(OC2CCN(C)CC2)c1 [Compound 343, (E)-3-(4-((E)-1-(4-Fluoro-1H-indazol-5-yl)-2-(3-((1-methylpiperidin-4-yl)oxy)phenyl)but-1-en-1-yl)phenyl)acrylic acid] | ++ (++ = a single % value ≧ 40%)
7 | ≤ 100 nM | ≥ 40% | ≤ 100 nM | CC/C(=C(/c1ccc(/C=C/C(=O)O)cc1)c1ccc2scnc2c1)c1ccncc1Cl [Compound 284, (E)-3-(4-((E)-1-(Benzo[d]thiazol-5-yl)-2-(3-chloropyridin-4-yl)but-1-en-1-yl)phenyl)acrylic acid] | ++ (++ = a single % value ≧ 40%)
8 | ≤ 100 nM | ≥ 40% | ≤ 100 nM | O=C(O)/C=C/c1ccc(/C(=C(\c2ccc(F)cc2Cl)C2CCC2)c2ccc3nccn3c2)cc1 [Compound 311, (E)-3-(4-((E)-2-(2-Chloro-4-fluorophenyl)-2-cyclobutyl-1-(imidazo[1,2-a]pyridin-6-yl)vinyl)phenyl)acrylic acid] | ++ (++ = a single % value ≧ 40%)
9 | ≤ 100 nM | ≥ 40% | ≤ 100 nM | CC/C(=C(/c1ccc(/C=C/C(=O)O)cc1)c1ccc2[nH]ncc2c1)c1ccc(Oc2ncccn2)cc1 [Compound 290, (E)-3-(4-((E)-1-(1H-Indazol-5-yl)-2-(4-(pyrimidin-2-yloxy)phenyl)but-1-en-1-yl)phenyl)acrylic acid] | ++ (++ = a single % value ≧ 40%)
10 | ≤ 100 nM | ≥ 40% | ≤ 100 nM | CC/C(=C(/c1ccc(/C=C/c2nsc(=O)[nH]2)cc1)c1ccc2[nH]ncc2c1)c1ccccc1 [Compound 438, 3-((E)-4-((E)-1-(1H-Indazol-5-yl)-2-phenylbut-1-en-1-yl)styryl)-1,2,4-thiadiazol-5(4H)-one] | ++ (++ = a single % value ≧ 40%)
11 | > 100 nM | < 40% | > 100 nM | CC/C(=C(/c1ccc(/C=C/C(=O)O)cc1)c1ccc2nncn2c1)c1ccccc1 [Compound 127, (E)-3-(4-((E)-1-([1,2,4]Triazolo[4,3-a]pyridin-6-yl)-2-phenylbut-1-en-1-yl)phenyl)acrylic acid] | + (+ = a single % value < 40%)
12 | ≤ 100 nM | ≥ 40% | ≤ 100 nM | CC/C(=C(/c1ccc(/C=C/C(=O)O)cc1)c1ccc2[nH]ncc2c1)c1cccc(Oc2ccc(S(C)(=O)=O)cn2)c1 [Compound 379, (E)-3-(4-((E)-1-(1H-Indazol-5-yl)-2-(3-((5-(methylsulfonyl)pyridin-2-yl)oxy)phenyl)but-1-en-1-yl)phenyl)acrylic acid] | ++ (++ = a single % value ≧ 40%)
13 | > 100 nM | ≥ 40% |  | CC/C(=C(/c1ccc(/C=C/C(=O)O)cc1)c1ccc2[nH]cnc2c1)c1ccccc1 [Compound 83, (E)-3-(4-((E)-1-(1H-Benzo[d]imidazol-5-yl)-2-phenylbut-1-en-1-yl)phenyl)acrylic acid] | ++ (++ = a single % value ≧ 40%)
14 | ≤ 100 nM | ≥ 40% | ≤ 100 nM | CC/C(=C(/c1ccc(/C=C/C(=O)O)cc1)c1ccc2[nH]ncc2c1)c1ccsc1 [Compound 24, (E)-3-(4-((E)-1-(1H-Indazol-5-yl)-2-(thiophen-3-yl)but-1-en-1-yl)phenyl)acrylic acid] | ++ (++ = a single % value ≧ 40%)
15 | ≤ 100 nM | ≥ 40% | ≤ 100 nM | CC/C(=C(/c1ccc(/C=C/C(=O)O)cc1)c1ccc2[nH]ncc2c1)c1cc(C)sc1C [Compound 274, (E)-3-(4-((E)-2-(2,5-Dimethylthiophen-3-yl)-1-(1H-indazol-5-yl)but-1-en-1-yl)phenyl)acrylic acid] | ++ (++ = a single % value ≧ 40%)
16 | ≤ 100 nM | ≥ 40% | ≤ 100 nM | CS(=O)(=O)c1ccc(Oc2ccc(/C(=C(\c3ccc(/C=C/C(=O)O)cc3)c3ccc4[nH]ncc4c3)C3CCC3)cc2)nc1 [Compound 162, (E)-3-(4-((E)-2-Cyclobutyl-1-(1H-indazol-5-yl)-2-(4-((5-(methylsulfonyl)pyridin-2-yl)oxy)phenyl)vinyl)phenyl)acrylic acid] | ++ (++ = a single % value ≧ 40%)
17 | > 100 nM | ≥ 40% | > 100 nM | CC/C(=C(/c1ccc(/C=C/C(=O)O)cc1)c1ccc2[nH]ncc2c1)c1ccc(OCCCC(=O)O)cc1 [Compound 353, 4-(4-((E)-1-(4-((E)-2-Carboxyvinyl)phenyl)-1-(1H-indazol-5-yl)but-1-en-2-yl)phenoxy)butanoic acid] | + (+ = a single % value < 40%)
18 | > 100 nM | < 40% | > 100 nM | CC/C(=C(/c1ccc(/C=C/C(=O)O)cc1)c1ccn2cnnc2c1)c1ccccc1 [Compound 134, (E)-3-(4-((E)-1-([1,2,4]Triazolo[4,3-a]pyridin-7-yl)-2-phenylbut-1-en-1-yl)phenyl)acrylic acid] | + (+ = a single % value < 40%)
19 | > 100 nM | ≥ 40% | ≤ 100 nM | CC/C(=C(/c1ccc(-c2cc(O)on2)cc1)c1ccc2[nH]ncc2c1)c1ccc(F)cc1Cl [Compound 334, (E)-3-(4-(2-(2-Chloro-4-fluorophenyl)-1-(1H-indazol-5-yl)but-1-en-1-yl)phenyl)isoxazol-5-ol] | + (+ = a single % value < 40%)
20 | ≤ 100 nM | ≥ 40% | ≤ 100 nM | CC/C(=C(/c1ccc(/C=C/C(=O)O)cc1)c1ccc2[nH]ncc2c1)c1cccc(OCc2ccccc2)c1 [Compound 358, (E)-3-(4-((E)-2-(3-(Benzyloxy)phenyl)-1-(1H-indazol-5-yl)but-1-en-1-yl)phenyl)acrylic acid] | ++ (++ = a single % value ≧ 40%)
21 | > 100 nM | ≥ 40% | > 100 nM | CC/C(=C(/c1ccc(/C=C/C(=O)O)cc1)c1ccc2[nH]ncc2c1)c1ccc(N(C)c2ccccc2)cc1 [Compound 396, (E)-3-(4-((E)-1-(1H-Indazol-5-yl)-2-(4-(methyl(phenyl)amino)phenyl)but-1-en-1-yl)phenyl)acrylic acid & (E)-3-(4-((Z)-1-(1H-indazol-5-yl)-2-(4-(methyl(phenyl)amino)phenyl)but-1-en-1-yl)phenyl)acrylic acid (1:1 Mixture)] | ++ (++ = a single % value ≧ 40%)
